Consider 53 compounds from PubChem BioAssay AID1996.

Broadly, the solubility (kinetic) is solubility judged after dilution from a stock solution rather than from solid.

In brackets after ≈: the same amount, converted by molar mass. A value given as a limit tells only on which side of the number the result lay.

The conditions of the series: buffer; pH 7.4; 200.0 µM.
`Cc1noc(C)c1C(=O)OCC(=O)N(C)C1(C#N)CCCCC1` displayed a kinetic solubility greater than 47.9 µg/mL.
On to `O=S(=O)(Nc1cccc(S(=O)(=O)N2CCCCCC2)c1)c1ccc(F)cc1F`, for which the solubility (kinetic) is greater than 64.6 µg/mL.
`Brc1ccc(-c2cnco2)cc1` gave a solubility (kinetic) of 2.2 µg/mL (≈ 9.82 µM).
Compound `Cc1[nH]c2ccc(C(=O)N3CCCCC3)cc2c1C` yielded a kinetic solubility greater than 38.5 µg/mL.
The result for `CCCNC(=O)c1nn2cc(Br)cnc2c1Cl` reads greater than 47.6 µg/mL; that for `O=C(CN1CCCCC1)Nc1ccc(C(F)(F)F)cc1Cl`, 2.5 µg/mL (≈ 7.79 µM); that for `O=C(O)C1CCCN(S(=O)(=O)c2ccccc2[N+](=O)[O-])C1` (stereo not drawn), 36.5 µg/mL (≈ 116 µM).
Regarding `CCc1nnc(NC(=O)C2CCCO2)s1` (stereo not drawn), the kinetic solubility is greater than 34.1 µg/mL.
`Cc1ccc(S(=O)(=O)N2CCOCC2)cc1C(=O)NCCc1ccc(Cl)cc1` registered a solubility (kinetic) of 26 µg/mL (≈ 61.5 µM).
In the case of `CC(C)(C)c1ccc(-c2cnco2)cc1`, the solubility (kinetic) turned out to be 0.9 µg/mL (≈ 4.47 µM).
As to `N#CC1=C(N)OC2=C(C(=O)CCC2)C1c1cc2c(cc1Cl)OCO2` (stereo not drawn), the solubility (kinetic) stood at 17 µg/mL (≈ 49.3 µM).
As for `Cc1onc(-c2c(F)cccc2Cl)c1C(=O)N1CCSCC1`, the kinetic solubility was greater than 51.1 µg/mL.
In turn, `Cc1ccc(S(=O)(=O)Nc2ccccc2C(=O)N2CCOCC2)cc1` returned a solubility (kinetic) greater than 54.1 µg/mL.
With `COc1ccccc1CC(=O)O/N=C(\N)c1ccccn1`, the solubility (kinetic) was greater than 42.8 µg/mL.
The result for `N#C/C(=C\c1c(F)cccc1Cl)C(=O)NC1CC1` reads greater than 39.7 µg/mL; that for `CC(C)NC(=O)[C@H]1N2C(=O)c3ccccc3C2SC1(C)C` (stereo partly drawn), greater than 45.7 µg/mL.
In turn, `Cc1cnc(NC(=O)CC2CCCC2)s1` had a kinetic solubility of 13.3 µg/mL (≈ 59.3 µM).
Turning to `Cc1nc(C)c(C(=O)C2=C(O)C(=O)N(CCN(C)C)C2c2ccco2)s1` (stereo not drawn), the solubility (kinetic) is greater than 56.3 µg/mL.
Regarding `Cl.NCc1ccccc1`, the kinetic solubility is greater than 21.5 µg/mL.
Turning to `NS(=O)(=O)c1ccc(NC(=O)CN2C(=O)c3ccccc3C2=O)cc1`, the kinetic solubility was greater than 53.9 µg/mL.
`COc1ccccc1-c1c(C)nn2c(N3CCOCC3)cc(C)nc12` had a solubility (kinetic) greater than 50.8 µg/mL.
As for `OCCN1CCN(C(=S)Nc2ccccc2)CC1`, the solubility (kinetic) was greater than 39.8 µg/mL.
Compound `CCC(C)NC(=O)c1ccc(-n2c(=S)[nH]c3ccccc3c2=O)cc1` (stereo not drawn) yielded a kinetic solubility of 3.7 µg/mL (≈ 10.5 µM).
On to `CCC(=O)c1cn(CC(=O)Nc2ccc(C)cc2C)c2ccccc12`, for which the solubility (kinetic) was less than 0.4 µg/mL.
The compound `CCOC(=O)C1=C(C)NC(C)=C(C(=O)OC)C1c1ccco1` (stereo not drawn) registered a kinetic solubility of 34.1 µg/mL (≈ 112 µM).
As for `O=C(CCCn1cc([N+](=O)[O-])cn1)NCc1ccccc1`, the kinetic solubility is greater than 43.2 µg/mL.
Turning to `O=S(=O)(Nc1ccc(F)cc1)c1ccc(S(=O)(=O)N2CCOCC2)cc1`, the kinetic solubility turned out to be 12.6 µg/mL (≈ 31.5 µM).
For `COCCn1c(N)c(N(Cc2ccccc2)C(=O)c2cc(=O)[nH]c3ccccc23)c(=O)[nH]c1=O`, the kinetic solubility is greater than 69.2 µg/mL.
`Cc1ccc(N2C(=O)CC(Sc3cccs3)C2=O)cc1` (stereo not drawn): the solubility (kinetic) amounted to 35 µg/mL (≈ 115 µM).
The compound `CCCC1(CCC)NC(=O)N(CC(=O)Nc2ccc3c(c2)OCCO3)C1=O` had a solubility (kinetic) greater than 56.3 µg/mL.
Take `COC(=O)[C@H](CCSC)NC(=O)c1cccnc1SC`: the kinetic solubility is 38.8 µg/mL (≈ 123 µM).
The result for `Cc1ccc(NC(=O)CCc2c[nH]c3ccccc23)nc1` reads greater than 41.9 µg/mL; that for `Cc1ccnc(NC(=O)COC(=O)c2ccc(F)cc2F)n1`, greater than 46.1 µg/mL.
With `COc1ccc(NC(=O)N2CCCC(c3ccccc3)C2)cc1` (stereo not drawn), the kinetic solubility was determined as 27.8 µg/mL (≈ 89.6 µM).
Turning to `COc1ccccc1OCC(=O)N1CCCCCCC1`, the solubility (kinetic) was greater than 41.6 µg/mL.
In turn, `CC(=O)Nc1cccc(-c2csc(N)n2)c1` showed a solubility (kinetic) greater than 35 µg/mL.
The compound `Cc1ccccc1NCCC(=O)Nc1ccc(Cl)cc1` gave a solubility (kinetic) greater than 43.3 µg/mL.
Under `CC12CCC(C(=O)Nc3ccc(Br)cn3)(OC1=O)C2(C)C` (stereo not drawn) stands greater than 53 µg/mL; under `Cc1cccc(NC(=O)/C(C#N)=C/c2ccc(F)cc2)n1`, 1.5 µg/mL (≈ 5.33 µM); under `Cc1nnc(SC(C)C(=O)NC2CCCCC2C)s1` (stereo not drawn), greater than 44.9 µg/mL.
The result for `O=C(NCCCO)C(=O)Nc1cc2c3c(c1)CCC(=O)N3CCC2` reads 48.8 µg/mL (≈ 147 µM); that for `Cc1ccc2c(c1)c1c(n2CC(O)CN2CCC(C)CC2)CCCC1` (stereo not drawn), 44.4 µg/mL (≈ 130 µM); that for `O=C(CS(=O)(=O)c1ccccc1)NCc1ccco1`, 40.7 µg/mL (≈ 146 µM).
As for `COc1ccc2c(=O)c(C(=O)NCc3ccccc3)c[nH]c2c1`, the kinetic solubility is 2.3 µg/mL (≈ 7.46 µM).
`CCC1(c2ccc(F)cc2)NC(=O)N(CC(=O)NC2CCCCCC2)C1=O` (stereo not drawn) had a kinetic solubility of 10.4 µg/mL (≈ 27.7 µM).
As for `Cc1ccc(CNC(=O)Cn2cccc2)cc1`, the solubility (kinetic) was greater than 34.2 µg/mL.
`CN(C)C(=O)C(OC(=O)c1ccc2ccccc2n1)c1ccccc1` (stereo not drawn): the solubility (kinetic) was greater than 50.2 µg/mL.
On to `N#Cc1cccc2cccc(S(=O)(=O)N3CCOCC3)c12`, for which the kinetic solubility was determined as 14.9 µg/mL (≈ 49.3 µM).
The result for `O=C(CSc1ccc([N+](=O)[O-])cn1)Nc1ccc2c(c1)OCCO2` reads 0.7 µg/mL (≈ 2.02 µM); that for `O=C(NCc1ccco1)c1ccc(Cl)cc1[N+](=O)[O-]`, greater than 42.1 µg/mL.
The compound `Cc1cccc(C(=O)NCC(=O)NC(C)CCc2ccccc2)c1` (stereo not drawn) yielded a solubility (kinetic) of 40.8 µg/mL (≈ 126 µM).
The result for `O=C(COC(=O)c1ccco1)NCc1ccc2c(c1)OCO2` reads greater than 45.5 µg/mL; that for `O=C(c1cc(-c2cccc(O)c2)on1)N1CCCCCC1`, 40.8 µg/mL (≈ 142 µM).
